Laboratory results reported in patent publication US8592629B2, “Sulfonamide derivatives as Nav 1.7 inhibitors” (Pfizer Limited, priority 2010, dated 2013).

Molecular target: T1, Nav1.7 (or SCN9A) channel (Homo sapiens, UniProt Q15858)
T1 construct: expressed in transfected cells
Test: Nav1.7 (hSCN9A) block in HEK cells, PatchXpress 7000 automated electrophysiology, estimated IC50 (EIC50)
Format: cell-based
Conditions: PatchXpress assay; HEK cells stably transfected with hSCN9A, voltage-clamped at V1/2 of inactivation
In short: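 Stable hSCN9A HEK cells voltage-clamped at empirically determined inactivation V1/2 (8 s prepulse), current activated by 20 msec step to 0 mV; % inhibition from current before vs after compound. EIC50 derived from single-point data as concentration × (100−%inhibition)/%inhibition, excluding <20% and >80% inhibition; PatchXpress unless stated.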

T1 sequence (Q15858 whole entry): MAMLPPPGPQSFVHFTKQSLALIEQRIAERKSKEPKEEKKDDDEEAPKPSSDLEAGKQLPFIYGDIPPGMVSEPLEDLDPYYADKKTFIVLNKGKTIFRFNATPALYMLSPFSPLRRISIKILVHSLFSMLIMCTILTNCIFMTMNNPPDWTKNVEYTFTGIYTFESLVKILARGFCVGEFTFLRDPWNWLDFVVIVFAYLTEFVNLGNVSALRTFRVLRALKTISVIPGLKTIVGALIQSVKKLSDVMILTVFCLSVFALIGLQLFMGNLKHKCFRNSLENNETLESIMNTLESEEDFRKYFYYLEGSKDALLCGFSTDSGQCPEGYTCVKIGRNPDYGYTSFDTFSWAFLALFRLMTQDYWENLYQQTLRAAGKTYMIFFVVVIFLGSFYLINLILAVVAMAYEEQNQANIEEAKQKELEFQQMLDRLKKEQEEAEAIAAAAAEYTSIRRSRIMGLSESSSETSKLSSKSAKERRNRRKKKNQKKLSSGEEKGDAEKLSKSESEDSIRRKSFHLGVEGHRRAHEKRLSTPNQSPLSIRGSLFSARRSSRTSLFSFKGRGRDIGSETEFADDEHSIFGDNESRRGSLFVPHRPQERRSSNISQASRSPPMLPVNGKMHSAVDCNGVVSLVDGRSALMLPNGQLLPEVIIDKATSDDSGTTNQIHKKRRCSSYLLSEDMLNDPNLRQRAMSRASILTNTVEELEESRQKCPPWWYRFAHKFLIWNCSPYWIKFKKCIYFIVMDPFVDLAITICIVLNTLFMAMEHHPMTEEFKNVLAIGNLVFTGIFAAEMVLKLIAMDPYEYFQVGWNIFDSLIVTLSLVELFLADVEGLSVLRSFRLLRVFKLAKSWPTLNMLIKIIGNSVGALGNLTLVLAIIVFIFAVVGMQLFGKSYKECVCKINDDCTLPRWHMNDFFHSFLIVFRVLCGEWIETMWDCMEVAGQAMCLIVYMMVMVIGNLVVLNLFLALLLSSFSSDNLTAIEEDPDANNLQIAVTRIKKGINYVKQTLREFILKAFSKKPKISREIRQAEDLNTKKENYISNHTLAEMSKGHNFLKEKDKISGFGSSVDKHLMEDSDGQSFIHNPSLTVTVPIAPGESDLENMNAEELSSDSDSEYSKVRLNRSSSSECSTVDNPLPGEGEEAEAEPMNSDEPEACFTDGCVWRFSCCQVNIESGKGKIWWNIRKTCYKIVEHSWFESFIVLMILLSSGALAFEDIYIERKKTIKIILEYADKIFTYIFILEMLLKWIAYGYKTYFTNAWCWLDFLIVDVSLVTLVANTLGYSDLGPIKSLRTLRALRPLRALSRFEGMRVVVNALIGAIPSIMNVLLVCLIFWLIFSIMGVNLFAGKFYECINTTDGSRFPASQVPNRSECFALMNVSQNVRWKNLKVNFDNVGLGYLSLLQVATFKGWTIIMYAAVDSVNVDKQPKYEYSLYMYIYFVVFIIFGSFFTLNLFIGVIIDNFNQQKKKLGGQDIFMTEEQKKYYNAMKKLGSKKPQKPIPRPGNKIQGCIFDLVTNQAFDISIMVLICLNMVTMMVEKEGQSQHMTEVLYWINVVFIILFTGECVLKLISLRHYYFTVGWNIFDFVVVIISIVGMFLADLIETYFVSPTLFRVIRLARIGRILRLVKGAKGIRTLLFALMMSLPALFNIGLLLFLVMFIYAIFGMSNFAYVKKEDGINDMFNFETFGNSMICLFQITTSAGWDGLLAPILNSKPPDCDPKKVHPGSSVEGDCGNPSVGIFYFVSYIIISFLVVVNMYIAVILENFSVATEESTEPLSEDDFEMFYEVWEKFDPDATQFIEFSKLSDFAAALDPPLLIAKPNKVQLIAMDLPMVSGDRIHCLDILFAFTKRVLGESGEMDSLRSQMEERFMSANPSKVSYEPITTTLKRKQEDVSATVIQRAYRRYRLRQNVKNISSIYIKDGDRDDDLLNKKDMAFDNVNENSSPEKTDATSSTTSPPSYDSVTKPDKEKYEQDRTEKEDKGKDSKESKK

SMILES | IC50 [nM]
CCC(COC)Nc1ncc(Oc2cc(F)c(C(=O)NS(C)(=O)=O)cc2F)cc1Cl (centres unmarked) [Example 129, 4-[(5-chloro-6-{[1-(methoxymethyl)propyl]amino}pyridin-3-yl)oxy]-2,5-difluoro-N-(methylsulfonyl)benzamide] | 540
CS(=O)(=O)NC(=O)c1cc(F)c(Oc2cnc(N3CC(F)(F)C3)c(Cl)c2)cc1F [Example 130, 4-{[5-chloro-6-(3,3-difluoroazetidin-1-yl)pyridin-3-yl]oxy}-2,5-difluoro-N-(methylsulfonyl)benzamide] | 740
C[C@@H]1CCCN1c1ncc(Oc2cc(F)c(C(=O)NS(C)(=O)=O)cc2F)cc1Cl [Example 132, 4-({5-chloro-6-[(2R)-2-methylpyrrolidin-1-yl]pyridin-3-yl}oxy)-2,5-difluoro-N-(methylsulfonyl)benzamide] | 160
CS(=O)(=O)NC(=O)c1cc(F)c(Oc2cnc(N3CC(F)C3)c(Cl)c2)cc1F [Example 134, 4-{[5-chloro-6-(3-fluoroazetidin-1-yl)pyridin-3-yl]oxy}-2,5-difluoro-N-(methylsulfonyl)benzamide] | 580
CC(C)CN(C)c1ncc(Oc2cc(F)c(C(=O)NS(C)(=O)=O)cc2F)cc1Cl [Example 135, 4-({5-chloro-6-[isobutyl(methyl)amino]pyridin-3-yl}oxy)-2,5-difluoro-N-(methylsulfonyl)benzamide] | 140
CS(=O)(=O)NC(=O)c1cc(F)c(Oc2cnc(NC3CCCC3)c(Cl)c2)cc1F [Example 138, 4-{[5-chloro-6-(cyclopentylamino)pyridin-3-yl]oxy}-2,5-difluoro-N-(methylsulfonyl)benzamide] | 85
CN(c1ncc(Oc2cc(F)c(C(=O)NS(C)(=O)=O)cc2F)cc1Cl)C1CCOC1 (centres unmarked) [Example 139, 4-({5-chloro-6-[methyl(tetrahydrofuran-3-yl)amino]pyridin-3-yl}oxy)-2,5-difluoro-N-(methylsulfonyl)benzamide] | 2600
CS(=O)(=O)NC(=O)c1cc(F)c(Oc2cnc(NC3CC3)c(Cl)c2)cc1F [Example 140, 4-{[5-chloro-6-(cyclopropylamino)pyridin-3-yl]oxy}-2,5-difluoro-N-(methylsulfonyl)benzamide] | 1600

Next, values leading:

IC50 [nM] | SMILES
> 1000 | CN1CCCC(Nc2ncc(Oc3cc(F)c(C(=O)NS(C)(=O)=O)cc3F)cc2Cl)C1 (centres unmarked) [Example 127, 4-({5-chloro-6-[(1-methylpiperidin-3-yl)amino]pyridin-3-yl}oxy)-2,5-difluoro-N-(methylsulfonyl)benzamide]
2400 | CO[C@@H]1CCCN(c2ncc(Oc3cc(F)c(C(=O)NS(C)(=O)=O)cc3F)cc2Cl)C1 [Example 128, 4-({5-chloro-6-[(3R)-3-methoxypiperidin-1-yl]pyridin-3-yl}oxy)-2,5-difluoro-N-(methylsulfonyl)benzamide]
71 | CS(=O)(=O)NC(=O)c1cc(F)c(Oc2cnc(N3C[C@H]4CC[C@@H]3C4)c(Cl)c2)cc1F [Example 131, 4-({6-[(1R,4S)-2-azabicyclo[2.2.1]hept-2-yl]-5-chloropyridin-3-yl}oxy)-2,5-difluoro-N-(methylsulfonyl)benzamide]
170 | CN(c1ncc(Oc2cc(F)c(C(=O)NS(C)(=O)=O)cc2F)cc1Cl)C1CCC1 [Example 133, 4-({5-chloro-6-[cyclobutyl(methyl)amino]pyridin-3-yl}oxy)-2,5-difluoro-N-(methylsulfonyl)benzamide]
890 | COC[C@H](C)Nc1ncc(Oc2cc(F)c(C(=O)NS(C)(=O)=O)cc2F)cc1Cl [Example 136, 4-[(5-chloro-6-{[(1S)-2-methoxy-1-methylethyl]amino}pyridin-3-yl)oxy]-2,5-difluoro-N-(methylsulfonyl)benzamide]
3200 | CNc1ncc(Oc2cc(F)c(C(=O)NS(C)(=O)=O)cc2F)cc1Cl [Example 137, 4-{[5-chloro-6-(methylamino)pyridin-3-yl]oxy}-2,5-difluoro-N-(methylsulfonyl)benzamide]
